From patent US20260240976A1, “T[…] VACCINES BASED ON VALIDATED TARGET EPITOPES” (Deutsches Krebsforschungszentrum Stiftung des öffentlichen …, priority 2023, published 2026) come the findings set out here.

Where a SMILES comes first, the peptide text is derived from it.

One series deals with HPV16-positive cells. Briefly: Cytotoxicity assay (VITAL FR / live-cell imaging-based) with peptide-specific CD8+ T cells. More on the design: species or system human; key: +: cytotox: Ability of peptide-specific T cells to kill HPV16-positive cells.; +*: *highlights data from published resources.; *highlights data from published resources. To be noted: HLA restriction A02. Here is the method: The flow cytometry based VITAL FR cytotoxicity assay was used as published by Stanke et al. (Stanke et al., 2010) to assess whether peptide-specific T cells are able to specifically kill HPV-transformed target cells. Briefly, two HLA-A2+ cell lines, a HPV16-negative (HPV16−) control cell line (C33A) and a HPV16-positive (HPV16+) target cell line (CaSki) were fluorescently labeled with either FarRed or CFSE and were co-incubated with peptide-specific CD8+ T cells as effector cells. After 48 h co-incubation, the fluorescently labeled cells were analyzed by flow cytometry to determine the surviving cells and calculate the specific cytolytic function of the effector cells by the ratio of target and control cells.
CaSki and C33A cells were fluorescently labeled with CFSE and FarRed, respectively. Cells of both cell lines were harvested and resuspended in plain RPMI medium at a concentration of 1×10^6 cells/mL. For cell labeling, 5 μM CSFE were added to CaSki cells and 0.25 μM FarRed were added to C33A cells. The cells were incubated at 37° C. and the reaction was stopped after 10 min by addition of 50 mL RPMI with 10% FBS. The cells were centrifuged at 300×g for 5 min, the supernatant was discarded and the cells were resuspended in their cell culture medium. The labeled cells were seeded in T25 cell culture flasks with 1-2×10^6 cells/flask.
On the next day, the labeled CaSki and C33A as well as the epitope-specific semi-long-term T cell lines (described in 1.6) were harvested. CD8+ T cells were isolated from the epitope-specific semi-long-term T cell lines using the MACS CD8+ T cell isolation kit (Miltenyi Biotec) according to the manufacturer's protocol for LS columns. The CD8+ T cells were resuspended in T cell medium and added to wells of a F-bottom 96-well plate in serial dilutions to achieve triplicates of 6×10^4, 3×10^4, 1.5×10^4, 0.75×10^4 and 0.375×10^4 cells per well. The CaSki and C33A cells were mixed 1:1 in T cell medium and 3×10^3 cells were added to each well containing T cells. Thereby effector:target (E:T) ratios of […] were achieved. Additionally, triplicates of mixed target cells without T cells were seeded, which is referred to as E:T 0. After 48 h incubation at 37° C., 5% C02, the cells were harvested and analyzed at a BD FACS Canto™ II analyzer using the BD FACS Diva Software Version 6. The obtained data were analyzed with the FlowJo software Version 10 by applying the same gating strategy to all samples. Subsequently, the equations (1) and (2) given below were applied in Excel (Microsoft Office 2016) to calculate specific killing.
Semi long-term T cell lines were set up to obtain high numbers of T cells, which are required for the analysis of epitope specific cytotoxic T cell responses in VITAL FR cytotoxicity assays. Autologous DCs were generated from PBMCs as described in 1.7 and loaded with the desired HPV16 peptide. PBMCs of the same donor were thawed and resuspended in T cell medium supplemented with rhIL-7 (10 ng/mL) and rhIL-15 (20 ng/mL). 1×10^7 PBMCs/well were seeded to a 24-well plate in a total volume of 1 mL/well. Peptide-loaded DCs were added in a ratio of 50:1 (PBMCs:DCs) in 1 mL rhIL-7 (10 ng/mL) and rhIL-15 (20 ng/mL) supplemented T cell medium to achieve a final volume of 2 mL. The cell cultures were fed with rhIL-2 (final concentration: 40 U/mL) every other day. If the medium turned yellow the feeding was combined with a half medium change with 1 mL fresh IL-2 supplemented T cell medium. After eight days, the peptide stimulation with peptide-loaded DCs was repeated and cultivation was continued. On day 15, the T cell lines were harvested and used for CD8+ T cell isolation and cytotoxicity assays.
In addition to the VITAL FR assay described herein above, a newly established live-cell imaging-based cytotoxicity assay was applied. […]

Series [1] concerns short-term antigen-specific T cell lines generated from PBMCs. Briefly: Interferon-γ ELISpot assay on short-term antigen-specific T cell lines. To be noted: for rates of immunoactivation in PBMC samples, CD8 T cell responses and/or numbers of HPV16 positive cell lines presenting the peptide as HLA-complexes: comparison among the peptides in Table 1. The class given is cell-based, human.

Series [2] relates to peptide-specific T cell cultures. The series can be described thus: T cell phenotyping and intracellular cytokine staining (IFN-gamma, TNF-alpha). More on the design: key: +: cytokine: Immunogenicity of the peptide shown by intracellular cytokine staining (IFN-gamma, TNF-alpha); +*: *highlights data from published resources.; *highlights data from published resources. The series is classed as cell-based, human. The procedure: To characterize and quantify the responsive cells upon peptide stimulation, the peptide-specific T cell cultures with positive ELISpot results were further analyzed with T cell phenotyping and intracellular cytokine staining (ICS) assessed by flow cytometry.
The cells of the respective continued short-term T cell culture as well as the DMSO-stimulated and an unresponsive T cell line were harvested into 2 mL reaction tubes and centrifuged at 400×g for 10 min. The supernatant was discarded and the pellet of the unresponsive T cell line was resuspended in 100 μL ELISpot medium and used as unstimulated and unstained control. The pellets of the responsive and the DMSO-stimulated T cell lines were resuspended in 200 μL ELISpot medium and split equally into two wells of a V-bottom 96-well plate. One well of the responsive T cell lines was re-stimulated with 10 μg/mL of its specific peptide while the other well was mock stimulated with 0.1% (v/v) DMSO. As positive control, one well of the DMSO-stimulated T cell line was activated by treatment with 20 ng/ml Phorbol 12-myristate 13-acetate and 1 μM lonomycin. Then, 1:10 diluted GolgiStop (containing monensin) and 1:15 diluted GolgiPlug (containing brefeldin A) were added to all wells to inhibit intracellular transport processes. Monensin inhibits the trans-Golgi transport, while brefeldin A inhibits transport between the ER and the Golgi (Chardin and McCormick, 1999; Mollenhauer et al., 1990). The stimulated cells were incubated for 5 h at standard culture conditions.
After incubation, the cells were resuspended, centrifuged at 400×g for 5 min and the supernatant was discarded. Then, the cells were resuspended in 50 μL cold staining buffer (unstained) or 50 μL cold staining buffer containing the phenotyping antibodies against CD3, CD4, CD8 and the LIVE/DEAD™ Fixable Near-IR Dead Cell Stain (unstimulated and stimulated) and incubated at 4° C. for 30 min. After the surface staining, the cells were washed twice with 200 μL staining buffer and centrifugation at 1400 rpm, followed by fixation with 1% paraformaldehyde (PFA) solution for 15 min at 4° C. All following centrifugation steps were carried out at 1400 rpm for 5 min. After fixation, the cells were again washed twice with 200 μL cold staining buffer and were then resuspended in 100 μL 1× perm/wash buffer diluted in PBS (provided is 10×) for 15 min at 4° C. for cell membrane permeabilization. Subsequently, the plate was centrifuged and the supernatant was discarded. The cells were resuspended in 50 μL perm/wash buffer diluted in PBS (unstained) or 50 μL perm/wash buffer containing the intracellular cytokine antibodies against IFNγ, TNFα and granzyme B (unstimulated and stimulated) for 30 min at 4° C. After intracellular cytokine staining, the cells were washed twice with 200 μL 1× perm/wash buffer. Then 100 μL fix/perm solution (provided in the BD Cytofix/Cytoperm kit) were added per well. After 20 min of incubation at 4° C., the cells of each well were washed twice with 200 μL 1× perm/wash buffer before being resuspended in 100 μL staining buffer and stored at 4° C. overnight.
OneComp eBeads™ (eBeads) and ArC™ Amine Reactive Compensation beads (ArC beads) were stained as compensation controls. For each antibody, 50 μL of the eBeads suspension were stained with the same dilution as used for staining the cells. The ArC beads were stained with 1 μL LIVE/DEAD™ Fixable Near-IR Dead Cell Stain stock solution in 50 μL staining buffer. The beads were incubated at 4° C. for 30 min and were then washed two times with 1 mL staining buffer and centrifugation at 400×g. Finally, the stained beads were resuspended in 400 μL staining buffer, one drop of ArC™ negative beads was added to the labelled ArC beads, and all beads were stored at 4° C. overnight.
On the next day, the samples and the single stained compensation controls were acquired at a BD FACS Canto™ II analyzer using the BD FACS Diva Software Version 6. […]

On to `CC(C)C[C@H](NC(=O)[C@@H](N)CCCNC(=N)N)C(=O)N[C@@H](CS)C(=O)N[C@H](C(=O)N[C@@H](CCC(N)=O)C(=O)N[C@@H](CO)C(=O)N[C@H](C(=O)N[C@@H](Cc1c[nH]cn1)C(=O)N[C@H](C(=O)O)C(C)C)[C@@H](C)O)C(C)C` [compound 17] (H-RLCVQSTHV-OH), for which, in the series with HPV16-positive cells, the “cytotox: Ability of peptide-specific T cells to kill HPV16-positive cells” value (from here on “cytotox: Ability”) is given as “+”.

For the compound `CSCC[C@H](NC(=O)[C@@H](N)Cc1ccc(O)cc1)C(=O)N[C@@H](CC(C)C)C(=O)N[C@@H](CC(=O)O)C(=O)N[C@@H](CC(C)C)C(=O)N[C@@H](CCC(N)=O)C(=O)N1CCC[C@H]1C(=O)N[C@@H](CCC(=O)O)C(=O)O` [compound 32] (H-YMLDLQPE-OH), in the series on HPV16-positive cells, the “cytotox: Ability” value is reported as “+”.

For the compound `CC[C@H](C)[C@H](N)C(=O)N[C@@H](CCCNC(=N)N)C(=O)N[C@H](C(=O)N[C@@H](CC(C)C)C(=O)N[C@@H](CCC(=O)O)C(=O)N[C@@H](CC(=O)O)C(=O)N[C@@H](CC(C)C)C(=O)N[C@@H](CC(C)C)C(=O)N[C@@H](CCSC)C(=O)NCC(=O)N[C@H](C(=O)O)[C@@H](C)O)[C@@H](C)O` [compound 52] (H-IRTLEDLLMGT-OH), the “cytotox: Ability” value in the series on HPV16-positive cells is reported as “+”.

As for `CSCC[C@H](N)C(=O)N[C@@H](CC(C)C)C(=O)N[C@@H](CC(=O)O)C(=O)N[C@@H](CC(C)C)C(=O)N[C@@H](CCC(N)=O)C(=O)N1CCC[C@H]1C(=O)N[C@@H](CCC(=O)O)C(=O)N[C@H](C(=O)O)[C@@H](C)O` [compound 16] (H-MLDLQPET-OH), the “cytotox: Ability” value in the series with HPV16-positive cells is “+”.

With `CC[C@H](C)[C@H](NC(=O)CNC(=O)[C@H](CC(C)C)NC(=O)[C@@H](NC(=O)CNC(=O)[C@H](CCSC)NC(=O)[C@H](CC(C)C)NC(=O)[C@H](CC(C)C)NC(=O)[C@H](CC(=O)O)NC(=O)[C@@H](N)CCC(=O)O)[C@@H](C)O)C(=O)N[C@H](C(=O)O)C(C)C` [compound 21] (H-EDLLMGTLGIV-OH), the “cytotox: Ability” value in the series with HPV16-positive cells was “+”.

In the case of `CSCC[C@H](NC(=O)[C@@H](N)Cc1ccc(O)cc1)C(=O)N[C@@H](CC(C)C)C(=O)N[C@@H](CC(=O)O)C(=O)N[C@@H](CC(C)C)C(=O)N[C@@H](CCC(N)=O)C(=O)N1CCC[C@H]1C(=O)N[C@@H](CCC(=O)O)C(=O)N[C@H](C(=O)N[C@H](C(=O)N[C@@H](CC(=O)O)C(=O)O)[C@@H](C)O)[C@@H](C)O` [compound 15], in the series with HPV16-positive cells, the “cytotox: Ability” value was “+”.

As for “24 (DLLMGTLGIVC; Human papillomavirus 16) [compound 24]”, the “ELISpot: Immungenicity of the peptide shown by IFN-gamma ELISPOT analysis” value (“ELISpot: Immungenicity” for short) in series [1] (HLA restriction A02) was “+”. The “cytokine: Immunogenicity of the peptide shown by intracellular cytokine staining (IFN-gamma, TNF-alpha)” value (“cytokine: Immunogenicity” for short) in series [2] (HLA restriction A02) was “+”.

For the compound “109 (LQPETTDLY; Human papillomavirus 16) [compound 109]”, the “rates of immunoactivation in PBMC samples, CD8 T cell responses and/or numbers of HPV16 positive cell lines presenting the peptide as HLA-complexes” value in series [1] is given as “highest rates of immunoactivation in PBMC samples, to induce the strongest CD8 T cell responses, and/or shown to be presented as HLA-complexes by the highest numbers of HPV16 positive cell lines”. The “cytokine: Immunogenicity” value in series [2] (HLA restriction B15) is given as “+”.

Consider “97 (RPRKLPQL; Human papillomavirus 16) [compound 97]”, for which the “ELISpot: Immungenicity” value in series [1] (HLA restriction B07) is “+”. Also, the “rates of immunoactivation in PBMC samples, CD8 T cell responses and/or numbers of HPV16 positive cell lines presenting the peptide as HLA-complexes” value in series [1] is given as “highest rates of immunoactivation in PBMC samples, to induce the strongest CD8 T cell responses, and/or shown to be presented as HLA-complexes by the highest numbers of HPV16 positive cell lines”. In series [2] (HLA restriction B07), the “cytokine: Immunogenicity” value is “+”.

With “99 (RPRKLPQLCTE; Human papillomavirus 16) [compound 99]”, the “ELISpot: Immungenicity” value in series [1] (HLA restriction B07) is “+”. The “cytokine: Immunogenicity” value in series [2] (HLA restriction B07) is reported as “+”.

On to “137 (RHYCYSLY; Human papillomavirus 16) [compound 137]”, for which the “ELISpot: Immungenicity” value in series [1] (HLA restriction A03) is reported as “+”. Moreover, the “cytokine: Immunogenicity” value in series [2] (HLA restriction A03) was “+”.

For the compound “116 (LCIVYRDGNPY; Human papillomavirus 16) [compound 116]”, the “ELISpot: Immungenicity” value in series [1] (HLA restriction B15) is listed as “+”. Also, the “cytokine: Immunogenicity” value in series [2] (HLA restriction B15) is “+”.

Take “3 (TIHDIILQCVY; Human papillomavirus 16) [compound 3]”: the “ELISpot: Immungenicity” value in series [1] (HLA restriction A01) is reported as “+”. For the same compound, the “cytokine: Immunogenicity” value in series [2] (HLA restriction A01) is reported as “+”.
